Laboratory results taken from a melting point compilation (Tetko et al.; mined from patent text by program, amines drawn as free bases though some values may be those of a salt).

SMILES | melting point [°C]
Cc1ccc2c(c1)C1(COc3cc4c(cc31)OCCO4)C(=O)N2Cc1ncccc1C(F)(F)F (centres undefined) | 137 to 139
O=C(O)CCCC(=O)CCCc1ccccc1CCCC(=O)O | 87
c1ccc(-c2ccc(CCOc3ncnc4ccccc34)cc2)cc1 | 72 to 74
O=C1N(CCN2CCC(c3noc4cc(F)ccc34)CC2)CCN1c1ccccc1 | 158 to 160
c1ccc(C(c2ccccc2)N2CCC2)cc1 | 107 to 109
CCCc1n[nH]c2ccc(C(=O)O)cc12 | 296 to 299
CC(=O)Oc1c(C)cc(C=CC(=O)Nc2cnc3c(C)cc(C)cc3c2-c2ccccc2Cl)c(C)c1C | 233 to 234
COc1cc(I)c(C(=O)N(c2ccnc3cc4c(cc23)OCO4)C(C)CN(C)C)cc1OC (centres undefined) | 82 to 84
COc1cccc(CCNC(=O)N2CCC(Nc3ccc(CCNC[C@H](O)COc4ccc(O)cc4)cc3)CC2)c1 | 103 to 108
CCOC(=O)NC(C)c1ccc(O)c(C2CCCCC2)c1 (centres undefined) | 97 to 98
N#CCc1cc(O)cc2nc(-c3ccc(O)cc3)oc12 | 170 to 180
COc1ccc(C(C#Cc2ccccc2)CC(N)=O)cc1OC1CCCC1 (racemic) | 142 to 144
COC[C@@H](OC)[C@@H](OC)[C@H](OC)[C@H](CN(C)C(=O)c1ccc2n1Cc1ccccc1N(C(=O)c1ccc(C3=CCCCC3)c(C)c1)C2)OC | 68 to 83
Cc1nc(-c2ccccc2)c(C)c(O)c1C(=O)Nc1nccs1 | 266
CN(C)CC1CCc2cc(NC(=O)N3CCC(c4ccc(F)cc4)CC3)ccc2C1O (centres undefined) | 160 to 163
C=CCOc1ccc2c(C)c(C(=O)C=Cc3cc(OC)c(OC)c(OC)c3)c(=O)oc2c1 | 138 to 140
CC(C)(C)c1ccc(-c2cc(C=O)cc3c2C(C)(C)CCC3(C)C)cc1 | 129
CCOCCOc1c(Cl)c(Sc2ccccc2N)c(OCCOCC)c2c1C(=N)NC2=N | 114 to 116
CN(C)CC(O)Cn1c2ccccc2c2c3c(c4c5ccccc5n(C)c4c21)C(=O)N(C)C3=O (centres undefined) | 198 to 203
CC1(C)CCC(C)(C)c2cc(OCc3ccc(CO)cc3)ccc21 | 108 to 109
N#CC=C(N)c1cccs1 | 50 to 54

Other lines, results leading:

melting point [°C] | SMILES
119 to 120 | CCOC(=O)C(C)(C#N)c1ccc2c(c1)Cc1cccnc1O2 (centres undefined)
155 to 157 | CC(=O)N1CCN(CC(=O)Nc2ccc3[nH]c(=O)c4cccc5c4c3c2C5)CC1
272 | Cn1ncc2[nH]c3ccc(Cc4ccccc4C(N)=O)cc3c(=O)c21
192 | Cn1ncnc1COc1nn2c(-c3ccccc3F)nncc2c1-c1ccc(F)cc1
115 to 116 | CN1CCP(=O)(c2ccccc2)CC1
111 to 115 | CCOC(=O)C(C1c2ccccc2Sc2ccccc21)[N+](=O)[O-] (centres undefined)
55 to 58 | Cc1cccc(C(=O)c2ccc(Cl)cc2)c1O
134 | CNC(=O)CCC(=O)c1c(OC)cccc1OC
105 | Cc1cn(C(c2ccccc2)c2ccc(Cl)c([N+](=O)[O-])c2)cn1 (centres undefined)
118 to 121 | Cc1ccc(C(=O)c2ccc(CC#N)n2C)s1
115 to 119 | CCCCc1ccc(NCCS(=O)(=O)NCCCOc2cccc(CN3CCCCC3)c2)cc1
148 to 150 | Cc1nc2ccccc2c(=O)n1CCCOS(C)(=O)=O
248 to 250 | O=C(NCc1ccc(Cl)cc1)c1cnc2cc(I)ccc2c1O
139 to 140 | COc1cc(COc2nn(Cc3ccccc3)cc2C=O)ccc1OCc1nc(-c2ccco2)oc1C
144 to 146 | Cc1cc(-n2c(C)nc3ccccc32)ccc1[N+](=O)[O-]
156 to 158 | O=C(O)c1cccc(C=CC(=O)N2CCc3c([nH]c4ccccc34)C2c2ccc3c(c2)OCO3)c1 (centres undefined)
186 to 187 | CC(C)COc1ccccc1-c1ncc(C#N)c(=O)[nH]1
175 to 178 | NS(=O)(=O)c1c(Cl)cccc1Cn1cncn1
